Assay results from paper PMC12717519, “Chemical clues to infection: A pilot study on the differential secondary metabolite production during the life cycle of selected Cordyceps species” (IMA Fungus, 2025).
Values after ≈ are worked out from the molar mass of the structure shown. Like-named read-outs stand apart in the source and are kept apart here.

How the values were obtained:
[1] = system: Candida albicans (DSM 1665); experiment: MIC serial dilution assay; type: cell-based; details: serial dilution in 96-well microtiter plates, tested up to 67 µg/mL
Protocol: (§1) Serial dilution assays were performed in 96-well microtiter plates to determine the minimum inhibitory concentrations (MICs) against a panel of yeasts, filamentous fungi, and bacteria, as well as the half-maximal inhibitory concentrations (IC50) against human cell lines, following our previously described protocol ([Charria-Girón et al. 2023]).

[2] = system: Schizosaccharomyces pombe (DSM 70572); experiment: MIC serial dilution assay; type: cell-based; details: serial dilution in 96-well microtiter plates, tested up to 67 µg/mL
Protocol: as §1

[3] = system: Wickerhamomyces anomalus (DSM 6766); experiment: MIC serial dilution assay; type: cell-based; details: serial dilution in 96-well microtiter plates, tested up to 67 µg/mL
Protocol: as §1

[4] = system: Rhodotorula glutinis (DSM 10134); experiment: MIC serial dilution assay; type: cell-based; details: serial dilution in 96-well microtiter plates, tested up to 67 µg/mL
Protocol: as §1

[5] = system: Chromobacterium violaceum (DSM 30191); experiment: MIC serial dilution assay; type: cell-based; details: serial dilution in 96-well microtiter plates, tested up to 67 µg/mL
Protocol: as §1

[6] = system: Mucor hiemalis (DSM 2656); experiment: MIC serial dilution assay; type: cell-based; details: serial dilution in 96-well microtiter plates, tested up to 67 µg/mL
Protocol: as §1

[7] = system: Acinetobacter baumannii (DSM 30008); experiment: MIC serial dilution assay; type: cell-based; details: serial dilution in 96-well microtiter plates, tested up to 67 µg/mL
Protocol: as §1

[8] = system: Escherichia coli (DSM 1116); experiment: MIC serial dilution assay; type: cell-based; details: serial dilution in 96-well microtiter plates, tested up to 67 µg/mL
Protocol: as §1

[9] = system: Mycobacterium smegmatis (ATCC 700084); experiment: MIC serial dilution assay; type: cell-based; details: serial dilution in 96-well microtiter plates, tested up to 67 µg/mL
Protocol: as §1

[10] = system: Pseudomonas aeruginosa (PA14); experiment: MIC serial dilution assay; type: cell-based; details: serial dilution in 96-well microtiter plates, tested up to 67 µg/mL
Protocol: as §1

[11] = system: Staphylococcus aureus (DSM 346); experiment: microbe, parasite or virus in culture; type: cell-based
Protocol: as §1

[12] = system: Bacillus subtilis (DSM 10); experiment: microbe, parasite or virus in culture; type: cell-based; details: serial dilution in 96-well microtiter plates, tested up to 67 µg/mL
Protocol: as §1

[13] = system: Human endocervival adenocarcinoma (KB3.1); experiment: cells; type: cell-based
Protocol: as §1

Mouse fibroblast (L929) = experiment: Cytotoxicity assay; type: cell-based; details: serial dilution in 96-well plates
[14] = system: beet armyworm (Spodoptera exigua, Lepidoptera); experiment: Virulence of purified compounds against beet armyworm larvae (injection); type: in vivo; details: larvae injected with 0.5 µL of DMSO dilutions (40 to 0.625 µg/mL), n = 6 per concentration, 25 °C
Protocol: To evaluate the virulence of purified compounds against beet armyworm larvae, beauveriolides I (4) and M (5) were selected based on availability, and cytochalasin D served as a positive control. […] Larvae were injected with 0.5 µL of each dilution (n = 6 per concentration), maintained at 25 °C for one week, and monitored daily to assess mortality. Saline ([…]) and DMSO served as negative controls.
For proof of concept, beauveriolides I (4) and M (5) were selected based on availability and tested following the spore-suspension protocol but considering only total mortality, with cytochalasin D, a mycotoxin commonly produced by Metarhizium spp., used as a positive control ([Kobmoo et al. 2024]).

[15] = Solubility in deuterated solvents (for NMR); type: physicochemical; details: observation during NMR sample preparation; deuterated solvents / deuterated DMSO
[16] = serial dilution in 96-well microtiter plates, tested up to 67 µg/mL
[17] = KB3.1, serial dilution in 96-well plates, read-out: IC50
[18] = Bacillus subtilis, DSM10, read-out: MIC
[19] = Candida albicans, DSM1665, read-out: MIC
[20] = Mucor hiemalis, DSM2656, read-out: MIC
[21] = Escherichia coli, DSM1116, read-out: MIC
[22] = Mycolicibacterium smegmatis, ATCC700084, read-out: MIC
[23] = Pseudomonas aeruginosa, PA14, read-out: MIC
[24] = Staphylococcus aureus, DSM346, serial dilution in 96-well microtiter plates, tested up to 67 µg/mL, read-out: MIC
[25] = Homo sapiens, KB 3-1, KB3.1, serial dilution in 96-well plates, read-out: IC50
[26] = Chromobacterium violaceum, DSM30191, read-out: MIC

Row | Molecule | MIC [1] | MIC [6] | MIC [8] | MIC [9] | MIC [10] | MIC [11, 16] | MIC [12] | IC50 [13, 17] [µM] | IC50 (Mouse fibroblast (L929)) [µM] | further results
1 | cyclo-((S)-Pro-(R)-Leu) [Compound 8] | n.i. (No inhibition up to 67 µg/mL) | n.i. (No inhibition up to 67 µg/mL) | n.i. (No inhibition up to 67 µg/mL) | n.i. (No inhibition up to 67 µg/mL) | n.i. (No inhibition up to 67 µg/mL) | n.i. (No inhibition up to 67 µg/mL) | n.i. (No inhibition up to 67 µg/mL) | > 36.5 | > 36.5 | MIC [2]: n.i. (No inhibition up to 67 µg/mL); MIC [3]: n.i. (No inhibition up to 67 µg/mL); MIC [4]: n.i. (No inhibition up to 67 µg/mL); MIC [5]: n.i. (No inhibition up to 67 µg/mL); MIC [7]: n.i. (No inhibition up to 67 µg/mL)
2 | cyclo-((S)-Val-(R)-Val) [Compound 10] | n.i. (No inhibition up to 67 µg/mL) | n.i. (No inhibition up to 67 µg/mL) | n.i. (No inhibition up to 67 µg/mL) | n.i. (No inhibition up to 67 µg/mL) | n.i. (No inhibition up to 67 µg/mL) | n.i. (No inhibition up to 67 µg/mL) | n.i. (No inhibition up to 67 µg/mL) | > 36.5 | > 36.5 | 
3 | CN(C)[C@@H]1C(O)=C(C(N)=O)C(=O)[C@@]2(O)C(O)=C3C(=O)c4c(O)cccc4[C@@](C)(O)[C@H]3[C@H](O)[C@@H]12 [oxytetracycline, reference compound] |  |  |  |  |  |  |  |  |  | MIC [12, 18]: 16.6 µg/mL (≈ 36.1 µM)
4 | NC[C@H]1O[C@H](O[C@H]2[C@H](O)[C@@H](O[C@H]3O[C@H](CO)[C@@H](O)[C@H](N)[C@H]3O)[C@H](N)C[C@@H]2N)[C@H](O)[C@@H](O)[C@@H]1O [kanamycin, reference compound] |  |  |  | 1.70^K µg/mL |  |  |  |  |  | 
5 | cyclo-((S)-Pro-(R)-Ile) [Compound 9] | n.i. (No inhibition up to 67 µg/mL) | n.i. (No inhibition up to 67 µg/mL) | n.i. (No inhibition up to 67 µg/mL) | n.i. (No inhibition up to 67 µg/mL) | n.i. (No inhibition up to 67 µg/mL) | n.i. (No inhibition up to 67 µg/mL) | n.i. (No inhibition up to 67 µg/mL) | > 36.5 | > 36.5 | MIC [2]: n.i. (No inhibition up to 67 µg/mL); MIC [3]: n.i. (No inhibition up to 67 µg/mL); MIC [4]: n.i. (No inhibition up to 67 µg/mL); MIC [5]: n.i. (No inhibition up to 67 µg/mL); MIC [7]: n.i. (No inhibition up to 67 µg/mL)
6 | CC(=O)c1nccc2c1[nH]c1ccccc12 [Compound 11, 1-acetyl-β-carboline] |  |  |  |  |  |  |  |  |  | MIC [1, 19]: > 67 µg/mL; MIC [6, 20]: > 67 µg/mL; MIC [8, 21]: > 67 µg/mL; MIC [9, 22]: > 67 µg/mL; MIC [10, 23]: > 67 µg/mL; MIC [11, 24]: > 67 µg/mL; MIC [12, 18]: > 67 µg/mL; IC50 [13, 25]: > 36.5 µM; IC50 (Mouse fibroblast (L929); Mus musculus): > 36.5 µM
7 | C[C@@H]1[C@H](O)[C@@H](C)/C=C/C=C/CC/C=C/C=C/C=C/C=C/C(O[C@H]2O[C@H](C)[C@@H](O)[C@H](N)[C@@H]2O)CC2O[C@](O)(CC(O)C(O)CCC(O)CC(O)CC(O)CC(=O)O[C@H]1C)CC(O)C2C(=O)O (stereo partly drawn) [nystatin, reference compound] | 8.3^N µg/mL | 8.30^N µg/mL |  |  |  |  |  |  |  | MIC [2]: 8.30^N µg/mL; MIC [3]: 16.6^N µg/mL; MIC [4]: 4.20^N µg/mL
8 | CCCC[C@H](C)[C@@H]1CC(=O)N[C@@H](Cc2c[nH]c3ccccc23)C(=O)N[C@@H](Cc2ccccc2)C(=O)N[C@H](CC(C)C)C(=O)O1 [Compound 7, beauveriolide Jb] | n.i. (No inhibition up to 67 µg/mL) | n.i. (No inhibition up to 67 µg/mL) | n.i. (No inhibition up to 67 µg/mL) | n.i. (No inhibition up to 67 µg/mL) | n.i. (No inhibition up to 67 µg/mL) | n.i. (No inhibition up to 67 µg/mL) | n.i. (No inhibition up to 67 µg/mL) |  | > 36.5 | MIC [2]: n.i. (No inhibition up to 67 µg/mL); MIC [3]: n.i. (No inhibition up to 67 µg/mL); MIC [4]: n.i. (No inhibition up to 67 µg/mL); MIC [5]: n.i. (No inhibition up to 67 µg/mL); MIC [7]: n.i. (No inhibition up to 67 µg/mL); IC50 [13]: 36.5 µM
9 | CNC(C)C1CCC(N)C(OC2C(N)CC(N)C(OC3OCC(C)(O)C(NC)C3O)C2O)O1 (stereo not drawn) [gentamicin, reference compound] |  |  |  |  |  |  |  |  |  | MIC [5, 26]: 1.7 µg/mL (≈ 3.56 µM); MIC [8, 21]: 0.42 µg/mL (≈ 0.879 µM); MIC [10, 23]: 0.21 µg/mL (≈ 0.44 µM); MIC [11, 24]: 0.21 µg/mL (≈ 0.44 µM)
10 | C=C1[C@@H](C)[C@H]2[C@H](Cc3ccccc3)NC(=O)[C@]23[C@H](OC(C)=O)/C=C/[C@@](C)(O)C(=O)[C@@H](C)C/C=C/[C@H]3[C@@H]1O [cytochalasin D, reference compound] |  |  |  |  |  |  |  |  |  | total mortality (TM) by day 2 ([14]; concentration of the value not stated): 83%
11 | CCCC[C@H](C)[C@@H]1CC(=O)N[C@@H](C)C(=O)N[C@@H](C)C(=O)N[C@H](CC(C)C)C(=O)O1 [Compound 3, Beauveriolide S] | n.i. (No inhibition up to 67 µg/mL) | n.i. (No inhibition up to 67 µg/mL) | n.i. (No inhibition up to 67 µg/mL) | n.i. (No inhibition up to 67 µg/mL) | n.i. (No inhibition up to 67 µg/mL) |  | n.i. (No inhibition up to 67 µg/mL) | > 36.5 | > 36.5 | solubility in deuterated solvents [15]: insoluble; MIC ([11]; DSM 346): 66.6 µg/mL (≈ 162 µM)
12 | CC(=O)c1nc(C(=O)O)cc2c1[nH]c1ccccc12 [Compound 12, 1-acetyl-3-carboxy-β-carboline] |  |  |  |  |  |  |  |  |  | MIC [1, 19]: > 67 µg/mL; MIC ([2]; Schizosaccharomyces pombe, DSM70572, read-out: MIC): > 67 µg/mL; MIC ([3]; Hansenula anomala, DSM6766, read-out: MIC): > 67 µg/mL; MIC ([4]; Rhodotorula glutinis, DSM10134, read-out: MIC): > 67 µg/mL; MIC [5, 26]: > 67 µg/mL; MIC [6, 20]: > 67 µg/mL; MIC ([7]; Acinetobacter baumannii, DSM30008, read-out: MIC): > 67 µg/mL; MIC [8, 21]: > 67 µg/mL; MIC [9, 22]: > 67 µg/mL; MIC [10, 23]: > 67 µg/mL; MIC [11, 24]: > 67 µg/mL; MIC [12, 18]: > 67 µg/mL; IC50 [13, 25]: > 36.5 µM; IC50 (Mouse fibroblast (L929); Mus musculus): > 36.5 µM
13 | CCCC[C@H](C)[C@@H]1CC(=O)N[C@@H](C(C)C)C(=O)N[C@@H](C)C(=O)N[C@H](CC(C)C)C(=O)O1 [Compound 5, beauveriolide M] | n.i. (No inhibition up to 67 µg/mL) |  | n.i. (No inhibition up to 67 µg/mL) | n.i. (No inhibition up to 67 µg/mL) | n.i. (No inhibition up to 67 µg/mL) | n.i. (No inhibition up to 67 µg/mL) | n.i. (No inhibition up to 67 µg/mL) | > 36.5 | > 36.5 | insecticidal activity over 7 days ([14]; total mortality): no insecticidal
14 | beauveriolide L [Compound 6] | n.i. (No inhibition up to 67 µg/mL) | n.i. (No inhibition up to 67 µg/mL) | n.i. (No inhibition up to 67 µg/mL) | n.i. (No inhibition up to 67 µg/mL) | n.i. (No inhibition up to 67 µg/mL) | n.i. (No inhibition up to 67 µg/mL) | n.i. (No inhibition up to 67 µg/mL) | > 36.5 | > 36.5 | 
